In patent US9770407B2 (Lundbeck Pharmaceuticals LLC, priority 2005, dated 2017):
Converted amounts (≈) assume the structure as drawn. “And” between values parts separate entries of the source, which are not always exact repeats. Identical values can stand only once.

Assay: Phase solubility of CBZ in aqueous Captisol and aqueous Cavitron
Assay type: physicochemical
Conditions: for Measured CBZ conc: ambient laboratory temperature
Experimental: The percent weight/volume cyclodextrin solutions were prepared by adding the appropriate amount of cyclodextrin to a flask and filling to the desired total volume (10 mL) with water, as shown in the following Table 4. An excess of carbamazepine was added to each eppendorf tube. Appropriate vehicles were added to each tube and the final volumes were 1 mL. The solubility of CBZ was determined at ambient laboratory temperatures in various concentrations of aqueous Captisol and aqueous Cavitron (brand names of modified cyclodextrins useful in the present invention). The drug substance was added to a microcentrifuge tube and the appropriate vehicle was added. Periodically, the samples were centrifuged and then an aliquot was removed from the supernatant, diluted as necessary and assayed by HPLC to determine the concentration. The phase solubility was evaluated at least three times during each experiment to insure that the mixture achieved equilibrium. […] The solubilities reported in Table 5 are the average of two or three concentration determinations obtained during the respective time course.

## NC(=O)N1c2ccccc2C=Cc2ccccc21 [Carbamazepine, 5H-dibenz[b,f]azepine-5-carboxamide]
Captisol 0% w/v, CBZ source Orgamol
  Measured CBZ conc: 0.2 mg/mL
Captisol 0% w/v, CBZ source Spectrum
  Measured CBZ conc: 0.2 mg/mL
Captisol 0% w/v, average of the three determinations
  Measured CBZ conc, Ave: 0.2 mg/mL
Captisol 5% w/v, CBZ source Orgamol, listed as CBZ
  Measured CBZ conc: 2.2 mg/mL and 2.4 mg/mL
Captisol 5% w/v, CBZ source Spectrum
  Measured CBZ conc: 2.4 mg/mL
Captisol 5% w/v, average of the three determinations
  Measured CBZ conc, Ave: 2.3 mg/mL
Captisol 10% w/v, CBZ source Orgamol, listed as CBZ
  Measured CBZ conc: 4.1 mg/mL and 4.6 mg/mL
Captisol 10% w/v, CBZ source Spectrum
  Measured CBZ conc: 6.2 mg/mL
Captisol 10% w/v, average of the three determinations
  Measured CBZ conc, Ave: 5.0 mg/mL
Captisol 15% w/v, CBZ source Orgamol, listed as CBZ
  Measured CBZ conc: 6.4 mg/mL and 7.7 mg/mL
Captisol 15% w/v, CBZ source Spectrum
  Measured CBZ conc: 6.9 mg/mL
Captisol 15% w/v, average of the three determinations
  Measured CBZ conc, Ave: 7.0 mg/mL
Captisol 20% w/v, CBZ source Orgamol, listed as CBZ
  Measured CBZ conc: 9.2 mg/mL and 10.3 mg/mL
Captisol 20% w/v, CBZ source Spectrum
  Measured CBZ conc: 9.4 mg/mL
Captisol 20% w/v, average of the three determinations
  Measured CBZ conc, Ave: 9.6 mg/mL
Captisol 25% w/v, CBZ source Orgamol, listed as CBZ
  Measured CBZ conc: 11.4 mg/mL and 12.3 mg/mL
Captisol 25% w/v, CBZ source Spectrum
  Measured CBZ conc: 11.8 mg/mL
Captisol 25% w/v, average of the three determinations
  Measured CBZ conc, Ave: 11.8 mg/mL
Captisol 30% w/v, CBZ source Orgamol, listed as CBZ
  Measured CBZ conc: 13.5 mg/mL and 15.2 mg/mL
Captisol 30% w/v, CBZ source Spectrum
  Measured CBZ conc: 14.6 mg/mL
Captisol 30% w/v, average of the three determinations
  Measured CBZ conc, Ave: 14.4 mg/mL
Captisol 35% w/v, CBZ source Orgamol, listed as CBZ
  Measured CBZ conc: 15.9 mg/mL and 18.4 mg/mL
Captisol 35% w/v, CBZ source Spectrum
  Measured CBZ conc: 16.3 mg/mL
Captisol 35% w/v, average of the three determinations
  Measured CBZ conc, Ave: 16.9 mg/mL
Captisol 40% w/v, CBZ source Orgamol, listed as CBZ
  Measured CBZ conc: 18.3 mg/mL and 20.8 mg/mL
Captisol 40% w/v, CBZ source Spectrum
  Measured CBZ conc: 19.3 mg/mL
Captisol 40% w/v, average of the three determinations
  Measured CBZ conc, Ave: 19.5 mg/mL
Captisol 45% w/v, CBZ source Orgamol, listed as CBZ
  Measured CBZ conc: 20.6 mg/mL and 22.5 mg/mL
Captisol 45% w/v, CBZ source Spectrum
  Measured CBZ conc: 21.8 mg/mL
Captisol 45% w/v, average of the three determinations
  Measured CBZ conc, Ave: 21.6 mg/mL
Captisol 50% w/v, CBZ source Orgamol, listed as CBZ
  Measured CBZ conc: 22.5 mg/mL and 24.8 mg/mL
Captisol 50% w/v, CBZ source Spectrum
  Measured CBZ conc: 26.6 mg/mL
Captisol 50% w/v, average of the three determinations
  Measured CBZ conc, Ave: 24.6 mg/mL
Cavitron 0% w/v, CBZ source Orgamol
  Measured CBZ conc: 0.2 mg/mL
Cavitron 0% w/v, CBZ source Spectrum
  Measured CBZ conc: 0.3 mg/mL
Cavitron 5% w/v, CBZ source Orgamol, listed as CBZ
  Measured CBZ conc: 2.7 mg/mL and 3.0 mg/mL
Cavitron 5% w/v, CBZ source Spectrum
  Measured CBZ conc: 3.8 mg/mL
Cavitron 5% w/v, average of the three determinations
  Measured CBZ conc, Ave: 3.2 mg/mL
Cavitron 10% w/v, CBZ source Orgamol, listed as CBZ
  Measured CBZ conc: 5.4 mg/mL and 5.6 mg/mL
Cavitron 10% w/v, CBZ source Spectrum
  Measured CBZ conc: 4.1 mg/mL
Cavitron 10% w/v, average of the three determinations
  Measured CBZ conc, Ave: 5.0 mg/mL
Cavitron 15% w/v, CBZ source Orgamol, listed as CBZ
  Measured CBZ conc: 8.2 mg/mL and 8.4 mg/mL
Cavitron 15% w/v, CBZ source Spectrum
  Measured CBZ conc: 12.3 mg/mL
Cavitron 15% w/v, average of the three determinations
  Measured CBZ conc, Ave: 9.6 mg/mL
Cavitron 20% w/v, CBZ source Orgamol, listed as CBZ
  Measured CBZ conc: 10.9 mg/mL and 11.1 mg/mL
Cavitron 20% w/v, CBZ source Spectrum
  Measured CBZ conc: 16.4 mg/mL
Cavitron 20% w/v, average of the three determinations
  Measured CBZ conc, Ave: 12.8 mg/mL
Cavitron 25% w/v, CBZ source Orgamol, listed as CBZ
  Measured CBZ conc: 14.0 mg/mL and 14.3 mg/mL
Cavitron 25% w/v, CBZ source Spectrum
  Measured CBZ conc: 14.8 mg/mL
Cavitron 25% w/v, average of the three determinations
  Measured CBZ conc, Ave: 14.4 mg/mL
Cavitron 30% w/v, CBZ source Orgamol, listed as CBZ
  Measured CBZ conc: 15.9 mg/mL and 16.2 mg/mL
Cavitron 30% w/v, CBZ source Spectrum
  Measured CBZ conc: 17.9 mg/mL
Cavitron 30% w/v, average of the three determinations
  Measured CBZ conc, Ave: 16.7 mg/mL
Cavitron 35% w/v, CBZ source Orgamol, listed as CBZ
  Measured CBZ conc: 18.1 mg/mL and 19.9 mg/mL
Cavitron 35% w/v, CBZ source Spectrum
  Measured CBZ conc: 20.7 mg/mL
Cavitron 35% w/v, average of the three determinations
  Measured CBZ conc, Ave: 19.6 mg/mL
Cavitron 40% w/v, CBZ source Orgamol, listed as CBZ
  Measured CBZ conc: 22.5 mg/mL and 22.0 mg/mL
Cavitron 40% w/v, CBZ source Spectrum
  Measured CBZ conc: 23.2 mg/mL
Cavitron 40% w/v, average of the three determinations
  Measured CBZ conc, Ave: 22.6 mg/mL
Cavitron 45% w/v, CBZ source Orgamol, listed as CBZ
  Measured CBZ conc: 25.5 mg/mL and 25.7 mg/mL
Cavitron 45% w/v, CBZ source Spectrum
  Measured CBZ conc: 27.3 mg/mL
Cavitron 45% w/v, average of the three determinations
  Measured CBZ conc, Ave: 26.2 mg/mL
Cavitron 50% w/v, CBZ source Orgamol, listed as CBZ
  Measured CBZ conc: 27.8 mg/mL and 28.0 mg/mL
Cavitron 50% w/v, CBZ source Spectrum
  Measured CBZ conc: 31.5 mg/mL
Cavitron 50% w/v, average of the three determinations
  Measured CBZ conc, Ave: 29.1 mg/mL
Aqueous Cavitron, water, thermodynamic from solid, Cavitron 0% w/v, average of the three determinations, read-out: Measured CBZ conc, Ave
  solubility thermodynamic: 200 µg/mL (≈ 846 µM)
At most cyclodextrin concentrations, FIG. 1A
  CBZ solubility in Cavitron as compared to Captisol: marginally improved in Cavitron
